# Literature values in PMC5763161 (Molecular Therapy, 2017).
# System: dystrophin exon skipping
# Conditions: mdx mice
substance,measurement,value
ASSLNIA,delivery or exon-skipping levels when conjugated to a PMO,unable to increase
